# Tests used:
# Type in all cases: functional
# [1] = tested on: Micrococcus luteus; test: Antibacterial activity against Micrococcus luteus MTCC 1538 at 750 ug/ml after 48 hr by cup-plate method; details: MTCC 1538, 48 h, read-out: DIZ
# [2] = tested on: Aspergillus niger; test: Antifungal activity against Aspergillus niger MTCC 2546 after 24 to 48 hr by tube dilution method
# [3] = tested on: Staphylococcus aureus; test: Antibacterial activity against Staphylococcus aureus MTCC 1430 at 1000 ug/ml after 48 hr by cup-plate method; details: MTCC 1430, 48 h, read-out: DIZ
# [4] = tested on: Escherichia coli; test: Antibacterial activity against Escherichia coli MTCC 1573 after 24 to 48 hr by tube dilution method
# [5] = tested on: Pseudomonas fluorescens; test: Antibacterial activity against Pseudomonas fluorescens MTCC 2421 at 1000 ug/ml after 48 hr by cup-plate method; details: MTCC 2421, 48 h, read-out: DIZ
# [6] = tested on: Bacillus subtilis; test: Antibacterial activity against Bacillus subtilis MTCC 441 after 24 to 48 hr by tube dilution method
# [7] = tested on: Bacillus subtilis; test: Antibacterial activity against Bacillus subtilis MTCC 441 at 750 ug/ml after 48 hr by cup-plate method; details: MTCC 441, 48 h, read-out: DIZ
# [8] = tested on: Bacillus pumilus; test: Antibacterial activity against Bacillus pumilus MTCC 1456 at 500 ug/ml after 48 hr by cup-plate method; details: MTCC 1456, 48 h, read-out: DIZ
# [9] = tested on: Escherichia coli; test: Antibacterial activity against Escherichia coli MTCC 1573 at 500 ug/ml after 48 hr by cup-plate method; details: MTCC 1573, 48 h, read-out: DIZ
# [10] = tested on: Escherichia coli; test: Antibacterial activity against Escherichia coli MTCC 1573 at 1000 ug/ml after 48 hr by cup-plate method; details: MTCC 1573, 48 h, read-out: DIZ
# [11] = tested on: Pseudomonas aeruginosa; test: Antibacterial activity against Pseudomonas aeruginosa MTCC 424 at 1000 ug/ml after 48 hr by cup-plate method; details: MTCC 424, 48 h, read-out: DIZ
# [12] = tested on: Bacillus pumilus; test: Antibacterial activity against Bacillus pumilus MTCC 1456 at 1000 ug/ml after 48 hr by cup-plate method; details: MTCC 1456, 48 h, read-out: DIZ
# [13] = tested on: Pseudomonas fluorescens; test: Antibacterial activity against Pseudomonas fluorescens MTCC 2421 at 750 ug/ml after 48 hr by cup-plate method; details: MTCC 2421, 48 h, read-out: DIZ
# [14] = tested on: Bacillus pumilus; test: Antibacterial activity against Bacillus pumilus MTCC 1456 at 250 ug/ml after 48 hr by cup-plate method; details: MTCC 1456, 48 h, read-out: DIZ
# [15] = tested on: Bacillus pumilus; test: Antibacterial activity against Bacillus pumilus MTCC 1456 at 100 ug/ml after 48 hr by cup-plate method; details: MTCC 1456, 48 h, read-out: DIZ
# [16] = tested on: Escherichia coli; test: Antibacterial activity against Escherichia coli MTCC 1573 at 100 ug/ml after 48 hr by cup-plate method; details: MTCC 1573, 48 h, read-out: DIZ
# [17] = tested on: Micrococcus luteus; test: Antibacterial activity against Micrococcus luteus MTCC 1538 at 1250 ug/ml after 48 hr by cup-plate method; details: MTCC 1538, 48 h, read-out: DIZ
# [18] = tested on: Pseudomonas aeruginosa; test: Antibacterial activity against Pseudomonas aeruginosa MTCC 424 at 250 ug/ml after 48 hr by cup-plate method; details: MTCC 424, 48 h, read-out: DIZ
# [19] = tested on: Micrococcus luteus; test: Antibacterial activity against Micrococcus luteus MTCC 1538 at 500 ug/ml after 48 hr by cup-plate method; details: MTCC 1538, 48 h, read-out: DIZ
# [20] = tested on: Bacillus pumilus; test: Antibacterial activity against Bacillus pumilus MTCC 1456 at 750 ug/ml after 48 hr by cup-plate method; details: MTCC 1456, 48 h, read-out: DIZ
# [21] = tested on: Pseudomonas aeruginosa; test: Antibacterial activity against Pseudomonas aeruginosa MTCC 424 after 24 to 48 hr by tube dilution method
# [22] = tested on: Micrococcus luteus; test: Antibacterial activity against Micrococcus luteus MTCC 1538 after 24 to 48 hr by tube dilution method
# [23] = tested on: Pseudomonas fluorescens; test: Antibacterial activity against Pseudomonas fluorescens MTCC 2421 at 500 ug/ml after 48 hr by cup-plate method; details: MTCC 2421, 48 h, read-out: DIZ
# [24] = tested on: Bacillus subtilis; test: Antibacterial activity against Bacillus subtilis MTCC 441 at 100 ug/ml after 48 hr by cup-plate method; details: MTCC 441, 48 h, read-out: DIZ
# [25] = tested on: Staphylococcus aureus; test: Antibacterial activity against Staphylococcus aureus MTCC 1430 after 24 to 48 hr by tube dilution method
# [26] = tested on: Aspergillus niger; test: Antifungal activity against Aspergillus niger MTCC 2546 at 1000 ug/ml after 48 hr by cup-plate method; details: MTCC 2546, 48 h, read-out: DIZ
# [27] = tested on: Pseudomonas fluorescens; test: Antibacterial activity against Pseudomonas fluorescens MTCC 2421 after 24 to 48 hr by tube dilution method
# [28] = tested on: Pseudomonas fluorescens; test: Antibacterial activity against Pseudomonas fluorescens MTCC 2421 at 1250 ug/ml after 48 hr by cup-plate method; details: MTCC 2421, 48 h, read-out: DIZ
# [29] = tested on: Bacillus subtilis; test: Antibacterial activity against Bacillus subtilis MTCC 441 at 1000 ug/ml after 48 hr by cup-plate method; details: MTCC 441, 48 h, read-out: DIZ
# [30] = tested on: Bacillus subtilis; test: Antibacterial activity against Bacillus subtilis MTCC 441 at 500 ug/ml after 48 hr by cup-plate method; details: MTCC 441, 48 h, read-out: DIZ
# [31] = tested on: Penicillium chrysogenum; test: Antifungal activity against Penicillium chrysogenum MTCC 161 at 750 ug/ml after 48 hr by cup-plate method; details: MTCC 161, 48 h, read-out: DIZ
# [32] = tested on: Bacillus pumilus; test: Antibacterial activity against Bacillus pumilus MTCC 1456 at 1250 ug/ml after 48 hr by cup-plate method; details: MTCC 1456, 48 h, read-out: DIZ
# [33] = tested on: Penicillium chrysogenum; test: Antifungal activity against Penicillium chrysogenum MTCC 161 at 1000 ug/ml after 48 hr by cup-plate method; details: MTCC 161, 48 h, read-out: DIZ
# [34] = tested on: Pseudomonas aeruginosa; test: Antibacterial activity against Pseudomonas aeruginosa MTCC 424 at 1250 ug/ml after 48 hr by cup-plate method; details: MTCC 424, 48 h, read-out: DIZ
# [35] = tested on: Pseudomonas aeruginosa; test: Antibacterial activity against Pseudomonas aeruginosa MTCC 424 at 750 ug/ml after 48 hr by cup-plate method; details: MTCC 424, 48 h, read-out: DIZ
# [36] = tested on: Staphylococcus aureus; test: Antibacterial activity against Staphylococcus aureus MTCC 1430 at 750 ug/ml after 48 hr by cup-plate method; details: MTCC 1430, 48 h, read-out: DIZ
# [37] = tested on: Pseudomonas aeruginosa; test: Antibacterial activity against Pseudomonas aeruginosa MTCC 424 at 100 ug/ml after 48 hr by cup-plate method; details: MTCC 424, 48 h, read-out: DIZ
# [38] = tested on: Micrococcus luteus; test: Antibacterial activity against Micrococcus luteus MTCC 1538 at 100 ug/ml after 48 hr by cup-plate method; details: MTCC 1538, 48 h, read-out: DIZ
# [39] = tested on: Bacillus subtilis; test: Antibacterial activity against Bacillus subtilis MTCC 441 at 1250 ug/ml after 48 hr by cup-plate method; details: MTCC 441, 48 h, read-out: DIZ
# [40] = tested on: Pseudomonas aeruginosa; test: Antibacterial activity against Pseudomonas aeruginosa MTCC 424 at 500 ug/ml after 48 hr by cup-plate method; details: MTCC 424, 48 h, read-out: DIZ
# [41] = tested on: Staphylococcus aureus; test: Antibacterial activity against Staphylococcus aureus MTCC 1430 at 250 ug/ml after 48 hr by cup-plate method; details: MTCC 1430, 48 h, read-out: DIZ
# [42] = tested on: Micrococcus luteus; test: Antibacterial activity against Micrococcus luteus MTCC 1538 at 250 ug/ml after 48 hr by cup-plate method; details: MTCC 1538, 48 h, read-out: DIZ
# [43] = tested on: Penicillium chrysogenum; test: Antifungal activity against Penicillium chrysogenum MTCC 161 at 1250 ug/ml after 48 hr by cup-plate method; details: MTCC 161, 48 h, read-out: DIZ
# [44] = tested on: Micrococcus luteus; test: Antibacterial activity against Micrococcus luteus MTCC 1538 at 1000 ug/ml after 48 hr by cup-plate method; details: MTCC 1538, 48 h, read-out: DIZ
# [45] = tested on: Aspergillus niger; test: Antifungal activity against Aspergillus niger MTCC 2546 at 1250 ug/ml after 48 hr by cup-plate method; details: MTCC 2546, 48 h, read-out: DIZ
# [46] = tested on: Penicillium chrysogenum; test: Antifungal activity against Penicillium chrysogenum MTCC 161 at 500 ug/ml after 48 hr by cup-plate method; details: MTCC 161, 48 h, read-out: DIZ
# [47] = tested on: Escherichia coli; test: Antibacterial activity against Escherichia coli MTCC 1573 at 1250 ug/ml after 48 hr by cup-plate method; details: MTCC 1573, 48 h, read-out: DIZ
# [48] = tested on: Aspergillus niger; test: Antifungal activity against Aspergillus niger MTCC 2546 at 500 ug/ml after 48 hr by cup-plate method; details: MTCC 2546, 48 h, read-out: DIZ
# [49] = tested on: Escherichia coli; test: Antibacterial activity against Escherichia coli MTCC 1573 at 750 ug/ml after 48 hr by cup-plate method; details: MTCC 1573, 48 h, read-out: DIZ
# [50] = tested on: Penicillium chrysogenum; test: Antifungal activity against Penicillium chrysogenum MTCC 161 after 24 to 48 hr by tube dilution method
# [51] = tested on: Escherichia coli; test: Antibacterial activity against Escherichia coli MTCC 1573 at 250 ug/ml after 48 hr by cup-plate method; details: MTCC 1573, 48 h, read-out: DIZ
# [52] = tested on: Staphylococcus aureus; test: Antibacterial activity against Staphylococcus aureus MTCC 1430 at 1250 ug/ml after 48 hr by cup-plate method; details: MTCC 1430, 48 h, read-out: DIZ
# [53] = tested on: Bacillus subtilis; test: Antibacterial activity against Bacillus subtilis MTCC 441 at 250 ug/ml after 48 hr by cup-plate method; details: MTCC 441, 48 h, read-out: DIZ
# [54] = tested on: Bacillus pumilus; test: Antibacterial activity against Bacillus pumilus MTCC 1456 after 24 to 48 hr by tube dilution method
# [55] = tested on: Staphylococcus aureus; test: Antibacterial activity against Staphylococcus aureus MTCC 1430 at 500 ug/ml after 48 hr by cup-plate method; details: MTCC 1430, 48 h, read-out: DIZ
compound,measurement,setting,value
O=[N+]([O-])c1ccc(C2CC(c3cccc4ccccc34)=NN2c2ccc([N+](=O)[O-])cc2[N+](=O)[O-])cc1 (stereo not given),zone of inhibition at 750 µg/mL,[1],11 mm
same,MIC,[2],150 µg/mL
same,zone of inhibition at 1000 µg/mL,[3],12 mm
same,MIC,[4],150 µg/mL
same,zone of inhibition at 1000 µg/mL,[5],22 mm
same,MIC,[6],50 µg/mL
same,zone of inhibition at 750 µg/mL,[7],14 mm
same,zone of inhibition at 500 µg/mL,[8],18 mm
same,zone of inhibition at 500 µg/mL,[9],11 mm
same,zone of inhibition at 1000 µg/mL,[10],14 mm
same,zone of inhibition at 1000 µg/mL,[11],14 mm
same,zone of inhibition at 1000 µg/mL,[12],22 mm
same,zone of inhibition at 750 µg/mL,[13],21 mm
same,zone of inhibition at 250 µg/mL,[14],11 mm
same,zone of inhibition at 100 µg/mL,[15],10 mm
same,zone of inhibition at 100 µg/mL,[16],9 mm
same,zone of inhibition at 1250 µg/mL,[17],14 mm
same,zone of inhibition at 250 µg/mL,[18],11 mm
same,zone of inhibition at 500 µg/mL,[19],10 mm
same,zone of inhibition at 750 µg/mL,[20],20 mm
same,MIC,[21],50 µg/mL
same,MIC,[22],150 µg/mL
same,zone of inhibition at 500 µg/mL,[23],18 mm
same,zone of inhibition at 100 µg/mL,[24],11 mm
same,MIC,[25],150 µg/mL
same,zone of inhibition at 1000 µg/mL,[26],21 mm
same,MIC,[27],150 µg/mL
same,zone of inhibition at 1250 µg/mL,[28],25 mm
same,zone of inhibition at 1000 µg/mL,[29],15 mm
same,zone of inhibition at 500 µg/mL,[30],13 mm
same,zone of inhibition at 750 µg/mL,[31],22 mm
same,zone of inhibition at 1250 µg/mL,[32],24 mm
same,zone of inhibition at 1000 µg/mL,[33],24 mm
same,zone of inhibition at 1250 µg/mL,[34],17 mm
same,zone of inhibition at 750 µg/mL,[35],13 mm
same,zone of inhibition at 750 µg/mL,[36],10 mm
same,zone of inhibition at 100 µg/mL,[37],10 mm
same,zone of inhibition at 100 µg/mL,[38],8 mm
same,zone of inhibition at 1250 µg/mL,[39],16 mm
same,zone of inhibition at 500 µg/mL,[40],12 mm
same,zone of inhibition at 250 µg/mL,[41],8 mm
same,zone of inhibition at 250 µg/mL,[42],9 mm
same,zone of inhibition at 1250 µg/mL,[43],26 mm
same,zone of inhibition at 1000 µg/mL,[44],12 mm
same,zone of inhibition at 1250 µg/mL,[45],23 mm
same,zone of inhibition at 500 µg/mL,[46],18 mm
same,zone of inhibition at 1250 µg/mL,[47],17 mm
same,zone of inhibition at 500 µg/mL,[48],16 mm
same,zone of inhibition at 750 µg/mL,[49],12 mm
same,MIC,[50],50 µg/mL
same,zone of inhibition at 250 µg/mL,[51],10 mm
same,zone of inhibition at 1250 µg/mL,[52],14 mm
same,zone of inhibition at 250 µg/mL,[53],12 mm
same,MIC,[54],30 µg/mL
same,zone of inhibition at 500 µg/mL,[55],9 mm
